Source: the CheMixHub viscosity set

Assay: xn = mol fraction of the nth substance listed

ClC(Cl)(Cl)Cl + CC(C)(C)O
viscosity [mPa·s], 101 kPa
Settings | 298.15 K | 308.15 K | 318.15 K
x2 = 0.0318 | 0.886 | 0.768 | 0.674
x2 = 0.044 | 0.888 | 0.77 | 0.674
x2 = 0.086 | 0.91 | 0.78 | 0.678
x2 = 0.1644 | 0.958 | 0.801 | 0.693
x2 = 0.2487 | 1.007 | 0.853 | 0.712
x2 = 0.3632 | 1.086 | 0.897 | 0.751
x2 = 0.4833 | 1.221 | 0.987 | 0.806
x2 = 0.6052 | 1.43 | 1.118 | 0.892
x2 = 0.7156 | 1.74 | 1.303 | 1.007
x2 = 0.8301 | 2.392 | 1.67 | 1.222
x2 = 0.9132 | 3.045 | 1.98 | 1.381

CCCC(C)=O + CC(=O)O
viscosity [mPa·s], 101 kPa
Settings | x2 = 0.0997 | x2 = 0.1996 | x2 = 0.2989 | x2 = 0.3983 | x2 = 0.5013 | x2 = 0.6017 | x2 = 0.6987 | x2 = 0.8081 | x2 = 0.8922
298.15 K | 0.5074 | 0.5482 | 0.5923 | 0.6401 | 0.6986 | 0.7628 | 0.839 | 0.9225 | 1.011
308.15 K | 0.4551 | 0.4882 | 0.5246 | 0.5655 | 0.6134 | 0.667 | 0.727 | 0.8006 | 0.878
318.15 K | 0.4061 | 0.4339 | 0.4639 | 0.4989 | 0.5394 | 0.5838 | 0.635 | 0.6961 | 0.7519

CCN(CC)CC + c1ccccc1
303.15 K, 101 kPa
Settings | viscosity [mPa·s]
x1 = 0.01024 | 0.5567
x1 = 0.02091 | 0.5513
x1 = 0.03113 | 0.545
x1 = 0.03955 | 0.5386
x1 = 0.05006 | 0.5341
x1 = 0.06182 | 0.5287
x1 = 0.07124 | 0.5215
x1 = 0.08041 | 0.5162
x1 = 0.09192 | 0.5096
x1 = 0.09995 | 0.5041

ClC(Cl)(Cl)Cl + ClCCCl
303.15 K, 101.3 kPa
Settings | viscosity [mPa·s]
x2 = 0.1081 | 0.7755
x2 = 0.1414 | 0.7609
x2 = 0.1994 | 0.739
x2 = 0.3171 | 0.7081
x2 = 0.3777 | 0.6975
x2 = 0.5001 | 0.6832
x2 = 0.5454 | 0.6817
x2 = 0.5978 | 0.6814
x2 = 0.6503 | 0.6809
x2 = 0.6758 | 0.6824
x2 = 0.7592 | 0.6879
x2 = 0.8193 | 0.6942
x2 = 0.8711 | 0.7016
x2 = 0.8965 | 0.7055
x2 = 0.934 | 0.7126

CCCOC(C)=O + COCCOCCOCCOCCOC
viscosity [mPa·s], 101 kPa
Settings | 298.15 K | 308.15 K | 318.15 K
x1 = 0.01 | 3.323 | 2.605 | 2.085
x2 = 0.0066 | 0.564 | 0.496 | 0.445
x2 = 0.0294 | 0.602 | 0.529 | 0.471
x2 = 0.0477 | 0.633 | 0.554 | 0.494
x2 = 0.0676 | 0.67 | 0.585 | 0.519
x2 = 0.103 | 0.746 | 0.64 | 0.562
x2 = 0.1448 | 0.825 | 0.716 | 0.619
x2 = 0.1941 | 0.93 | 0.794 | 0.689
x2 = 0.2422 | 1.049 | 0.881 | 0.757
x2 = 0.2932 | 1.161 | 0.978 | 0.834
x2 = 0.3625 | 1.343 | 1.12 | 0.943
x2 = 0.4204 | 1.504 | 1.234 | 1.038
x2 = 0.4781 | 1.663 | 1.364 | 1.139
x2 = 0.5293 | 1.827 | 1.472 | 1.22
x2 = 0.5986 | 2.014 | 1.633 | 1.345
x2 = 0.6621 | 2.209 | 1.784 | 1.458
x2 = 0.7157 | 2.378 | 1.924 | 1.559
x2 = 0.7802 | 2.61 | 2.074 | 1.679
x2 = 0.8069 | 2.687 | 2.142 | 1.737
x2 = 0.8324 | 2.77 | 2.203 | 1.78

CCN(CC)CC + CCc1ccccc1
303.15 K, 101 kPa
Settings | viscosity [mPa·s]
x1 = 0.01075 | 0.5914
x1 = 0.02054 | 0.5873
x1 = 0.03021 | 0.5822
x1 = 0.04405 | 0.5755
x1 = 0.05034 | 0.5715
x1 = 0.06324 | 0.5666
x1 = 0.07098 | 0.5623
x1 = 0.0794 | 0.5569
x1 = 0.09408 | 0.5505
x1 = 0.1003 | 0.5476

ClC(Cl)(Cl)Cl + COCCO
viscosity [mPa·s], 100 kPa
Settings | x1 = 0.0831 | x1 = 0.1694 | x1 = 0.2591 | x1 = 0.3523 | x1 = 0.4494 | x1 = 0.5504 | x1 = 0.6557 | x1 = 0.7655 | x1 = 0.8802
298.15 K | 1.569 | 1.49 | 1.412 | 1.335 | 1.26 | 1.186 | 1.114 | 1.043 | 0.9736
303.15 K | 1.392 | 1.328 | 1.265 | 1.202 | 1.171 | 1.079 | 1.019 | 0.9601 | 0.902
308.15 K | 1.24 | 1.188 | 1.137 | 1.111 | 1.036 | 0.9853 | 0.9601 | 0.8863 | 0.8376
313.15 K | 1.108 | 1.067 | 1.025 | 0.9841 | 0.9429 | 0.9015 | 0.8608 | 0.8201 | 0.7796

CCOC(=O)c1ccccc1O + CS(C)=O
303.15 K, 101 kPa
Settings | viscosity [mPa·s]
x1 = 0.0499 | 1.888
x1 = 0.1687 | 2.196
x1 = 0.2404 | 2.294
x1 = 0.3226 | 2.533
x1 = 0.4179 | 2.57
x1 = 0.5265 | 2.723
x1 = 0.6564 | 2.843

CCN(CC)CC + OCCO
101 kPa
Settings | viscosity [mPa·s]
296.95 K, x1 = 0.143 | 16.28
297.85 K, x1 = 0.268 | 9.85
297.85 K, x1 = 0.514 | 2.7
297.85 K, x1 = 0.789 | 0.704
301.85 K, x1 = 0.143 | 13.5
302.85 K, x1 = 0.268 | 7.9
302.85 K, x1 = 0.789 | 0.644
306.45 K, x1 = 0.143 | 11.7
307.85 K, x1 = 0.268 | 6.79
307.85 K, x1 = 0.514 | 2.05
307.85 K, x1 = 0.789 | 0.589
312.95 K, x1 = 0.268 | 5.7
312.95 K, x1 = 0.514 | 1.79
312.95 K, x1 = 0.789 | 0.543
313.45 K, x1 = 0.143 | 9.46
317.75 K, x1 = 0.268 | 4.91
317.75 K, x1 = 0.514 | 1.61
317.75 K, x1 = 0.789 | 0.514
320.45 K, x1 = 0.143 | 7.64
322.75 K, x1 = 0.268 | 4.18
322.75 K, x1 = 0.514 | 1.45
